Assay results published in patent US20260176232A1, “PROBENECID COMPOUNDS FOR THE TREATMENT OF INFLAMMASOME-MEDIATED DERMATOLOGICAL CONDITIONS” (Bacainn Biotherapeutics, Ltd., priority 2022, published 2026).

Experiments:
NLRP1 inflammasome = test: L18-MDP-induced IL-1β secretion in WT or NLRP3-/- immortalized BMDMs (FIG. 8); format: cell-based, murine; details: 20, 50, 100, 350 μM
Description: In vitro stimulation of murine macrophages.

[1] = system: T1, ASC speck formation (inflammasome complex); test: Nigericin-induced ASC speck formation in ASC-cerulean/NLRP3 macrophages; format: cell-based; details: 350 μM, 60 mins before nigericin 3 μM 90 mins; about 20% of cells with nigericin alone
T1 construct: Flag; expressed in transfected cells; host or cells: NLRP3-deficient immortalized BMDMs
Description: FIGS. 5B-5D are pictures showing the ability of probenecid analogs of the present technology (e.g., BT032) to inhibit the formation of the inflammasome complex following NLRP3 activation. NLRP3-deficient immortalized BMDMs reconstituted with ASC-cerulean (pseudocolor RED) and NLRP3-Flag were either not stimulated (FIG. 5B) or stimulated with NLRP3 agonist nigericin (3 μM) for 90 mins (FIG. 5C). ASC-cerulean macrophages were also pretreated with BT032 (350 μM) for 60 mins prior to nigericin challenge (FIG. 5D). Macrophages were fixed with 4% paraformaldehyde and imaged for the formation of inflammasome specks as identified by intense, punctate staining in the cytosol of cells. Cell nuclei were stained with DAP (4′,6′-diamindino-2-phenylindole; BLUE). Representative images shown are maximum intensity projections of 3D deconvoluted z stacks using ImageJ.
FIG. 5E is a chart showing the number of ASC specks detected per field (6-7 fields per sample) compared to the total number of cells/field as determined by staining nuclei. Data is represented as a percentage of ASC-specks per field of view for each treatment group as outlined in FIGS. 5B-5D.
Methods. […] ASC-cerulean specks were counted for each field and as percentage of specks per field and represented as a percentage of total Hoechst positive cells.

[2] = system: non-canonical inflammasome; test: IL-1β secretion in macrophages challenged with LPS (B4) (FIG. 4C); format: cell-based, human; details: BT032 20, 100 μM; Pam3Cys priming; LPS 0111:B4 16 h
Description: In vitro stimulation of human macrophages.

NLRP3 inflammasome = NLRP3 inflammasome (Mus musculus, UniProt Q8R4B8); test: IL-1β secretion (ELISA) in LPS-primed iBMDMs stimulated with silica or nigericin; format: cell-based, murine (C57BL/6); design: endogenous in cells; host or cells: immortalized wild-type C57BL/6 bone-marrow derived macrophages (iBMDMs), LPS-primed; details: compared with probenecid in DMSO or PBS
Description: In vitro stimulation of murine macrophages. Immortalized wild-type C57BL/6 bone-marrow derived macrophages (iBMDMs) were grown in DMEM supplemented with 10% heat inactivated FBS and 2 mM glutamine. iBMDMs were seeded in 96-well plates 24 hours prior incubation with lipopolysaccharide (LPS; 100 ng/mL) for 3 hours. Cells were then incubated with a control probenecid compound (probenecid dissolved in DMSO (Prob/D), probenecid dissolved in PBS (Prob/P)) or one of the probenecid analogs of the present technology (BT032, BT132, BT133, BT134, BT135, BT136, BT137, BT138, BT139, or BT140) at concentrations of 300 μM, 150 μM, 30 μM, or 3 μM 1 hour prior to stimulation with NLRP3 inflammasome activators, silica ([…]) or nigericin (6 μM). After an additional 6 hours, cell supernatants were collected and levels of IL-1β were quantified by ELISA. These experiments were run in triplicate three times.

T1 sequence (Q96P20 whole entry, one chain of several): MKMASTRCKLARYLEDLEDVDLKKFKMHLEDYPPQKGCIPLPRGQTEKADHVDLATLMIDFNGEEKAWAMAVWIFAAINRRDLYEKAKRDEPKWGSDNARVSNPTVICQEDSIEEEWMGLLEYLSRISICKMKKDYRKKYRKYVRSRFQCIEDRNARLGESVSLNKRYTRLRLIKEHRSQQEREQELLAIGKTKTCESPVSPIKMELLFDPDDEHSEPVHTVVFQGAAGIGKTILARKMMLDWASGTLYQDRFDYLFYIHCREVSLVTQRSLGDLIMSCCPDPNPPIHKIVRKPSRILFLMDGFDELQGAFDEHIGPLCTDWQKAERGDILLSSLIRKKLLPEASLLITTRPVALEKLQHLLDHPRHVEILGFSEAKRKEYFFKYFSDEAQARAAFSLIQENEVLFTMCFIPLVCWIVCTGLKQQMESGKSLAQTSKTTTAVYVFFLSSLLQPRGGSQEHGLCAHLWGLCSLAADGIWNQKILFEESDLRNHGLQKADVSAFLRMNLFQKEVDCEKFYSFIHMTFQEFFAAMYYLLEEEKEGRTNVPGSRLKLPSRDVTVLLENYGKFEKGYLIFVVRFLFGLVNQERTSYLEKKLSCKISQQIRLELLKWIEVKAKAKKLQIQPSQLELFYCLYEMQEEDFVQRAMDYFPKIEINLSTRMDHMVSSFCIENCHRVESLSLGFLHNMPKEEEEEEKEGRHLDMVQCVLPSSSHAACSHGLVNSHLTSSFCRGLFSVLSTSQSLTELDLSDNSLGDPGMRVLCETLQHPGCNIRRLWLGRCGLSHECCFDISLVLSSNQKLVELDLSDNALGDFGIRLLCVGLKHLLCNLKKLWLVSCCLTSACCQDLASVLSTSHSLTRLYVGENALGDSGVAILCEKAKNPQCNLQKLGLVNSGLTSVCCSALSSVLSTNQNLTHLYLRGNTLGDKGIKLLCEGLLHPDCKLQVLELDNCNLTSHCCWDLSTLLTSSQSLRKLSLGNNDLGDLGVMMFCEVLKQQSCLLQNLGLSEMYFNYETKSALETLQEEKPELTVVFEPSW
Chain of NLRP3 inflammasome (Q8R4B8 whole entry): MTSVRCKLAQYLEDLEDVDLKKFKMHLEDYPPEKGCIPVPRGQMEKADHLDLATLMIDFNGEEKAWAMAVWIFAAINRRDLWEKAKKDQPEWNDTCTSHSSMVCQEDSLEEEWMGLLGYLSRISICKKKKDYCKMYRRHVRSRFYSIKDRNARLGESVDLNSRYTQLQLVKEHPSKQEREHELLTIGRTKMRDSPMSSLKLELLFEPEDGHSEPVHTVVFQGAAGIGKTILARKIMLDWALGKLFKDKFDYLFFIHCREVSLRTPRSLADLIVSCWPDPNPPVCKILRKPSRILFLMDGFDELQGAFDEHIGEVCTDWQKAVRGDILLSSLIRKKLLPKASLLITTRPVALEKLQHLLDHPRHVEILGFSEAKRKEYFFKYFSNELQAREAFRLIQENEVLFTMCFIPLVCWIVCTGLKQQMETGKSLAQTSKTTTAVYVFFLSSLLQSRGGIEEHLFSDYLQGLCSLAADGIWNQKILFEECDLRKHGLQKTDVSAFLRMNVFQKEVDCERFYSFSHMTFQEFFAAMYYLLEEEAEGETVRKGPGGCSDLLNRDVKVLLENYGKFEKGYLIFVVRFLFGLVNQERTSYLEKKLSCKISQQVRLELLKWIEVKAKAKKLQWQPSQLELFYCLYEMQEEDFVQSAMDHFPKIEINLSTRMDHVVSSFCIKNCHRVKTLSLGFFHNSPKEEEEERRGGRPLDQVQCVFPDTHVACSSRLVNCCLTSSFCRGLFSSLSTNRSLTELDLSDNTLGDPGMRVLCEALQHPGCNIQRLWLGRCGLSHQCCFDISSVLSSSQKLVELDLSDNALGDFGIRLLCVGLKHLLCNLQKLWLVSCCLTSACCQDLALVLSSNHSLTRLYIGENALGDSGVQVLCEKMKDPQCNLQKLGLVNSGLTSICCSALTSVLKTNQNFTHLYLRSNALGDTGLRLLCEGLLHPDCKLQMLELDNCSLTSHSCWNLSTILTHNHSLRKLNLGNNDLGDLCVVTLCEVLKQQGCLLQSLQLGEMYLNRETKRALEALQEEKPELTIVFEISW

CCCN(CCC)S(=O)(=O)c1ccc(-c2ccc(CCCC(=O)O)cc2)cc1 [BT032, 4-(4′-(N,N-dipropylsulfamoyl)-[1,1′-biphenyl]-4-yl)butanoic acid]
NLRP1 (L18-MDP)-induced inflammasome activation as measured by IL-1β secretion (NLRP1 inflammasome; NLRP3-/- macrophages): dose-dependently inhibited
NLRP1 (L18-MDP)-induced inflammasome activation as measured by IL-1β secretion (NLRP1 inflammasome; WT macrophages): dose-dependently inhibited
ASC specks in cells [1]: substantially reduced ASC specks
non-canonical inflammasome activity (LPS (B4)) [2]: limited impact
potency versus control probenecid compounds (IL-1β secretion) (NLRP3 inflammasome): more potent than the control probenecid compounds
